Assays:
Format in all cases: cell-based, Trypanosoma cruzi
[1] = system: T. cruzi extracellular amastigotes; experiment: Extracellular amastigote assay (ATPlite ATP production, 48 hours); conditions: in words
Protocol: (§1) The in vitro anti-T. cruzi amastiogote activity assay was performed and optimized based on the protocol described previously (Canavaci, et al., PLoS neglected tropical diseases 4, e740 (2010)). The change in tdTomato fluorescence intensity was determined as a measurement of growth over 72 hours of culture. For assaying drug effects on extracellular amastigotes, trypomastigotes were collected from infected Vero cell cultures and converted in acidic media as previously described (Tomlinson, et al., Parasitology 110 (Pt 5), 547-554 (1995)). Amastigotes (50,000/well) were incubated with 2-fold serial dilutions of compounds for 48 hours. The ATP production was used as an indication of growth in this case, and was measured by ATPlite Luminescence ATP Detection Assay System (PerkinElmer). Both fluorescence and luminescence were read using a BioTek Synergy Hybrid Multi-Mode reader equipped with the software Gene5 v 2.0 (BioTek). The dose-response curve was generated by […] analysis with GraphPad Prism v9.4.0 (GraphPad Software). IC50 was determined as the drug concentration that was required to inhibit 50% of growth compared to that of parasites with no drug exposure.

T. cruzi mRNA = experiment: RNA-Seq of infected Vero cells: parasite mRNA relative to host cell mRNA; conditions: as early as 6 hrs after addition (FIG. 5C)
Protocol: Vero cells (10^6) were infected with 10^7 CL strain trypomastigotes of T. cruzi for 2 days before treating with either 5 uM benznidazole or 30 nM AN14353. The drug concentration used for treatment was set at 5 times the IC50. Samples were collected at several time points for RNA extraction as previously described (Minning, et al., BMC genomics 10, 370 (2009)). rRNA-depleted RNA library construction and RNA sequencing using Illumina Nextseq 75PE was carried out by Georgia Genomics and Bioinformatics Core (GGBC, University of Georgia, Georgia). Illumina reads with mean quality lower than 30 (Phred Score based) were removed from analysis, then mapped to CL Brener genome (TritrypDB release-33) and African green monkey genome (Osada, et al., DNA Res 21, 673-683 (2014)) using the HiSAT software package v0.1.6^50 with default parameters. The mapping rate was quantified by HTseq v0.6.1 (Anders, et al., Bioinformatics 31, 166-169 (2015)).

CPSF3 = experiment: Resistance of CPSF3 overexpression line and CPSF3 mutant (intracellular amastigotes)
Protocol: as §1, with “exposure. […]” for “exposure.”

SMILES | sensitivity of extracellular amastigotes [1] | parasite mRNA in T. cruzi-infected host cells (T. cruzi mRNA) | increase in resistance on overexpression of CPSF3 (CPSF3; intracellular amastigotes) | effect of CPSF3 Asn232 to His mutation (CPSF3; intracellular amastigotes (FIG. 5D))
Cc1c(C(=O)N[C@H](C(=O)OCc2ccc(F)c(F)c2)C(C)C)ccc2c1B(O)OC2 [AN14353] | high sensitivity | marked and continuing reduction in parasite mRNA |  | 
Cc1c(C(=O)N[C@H](C(=O)OCC2CCOCC2)C(C)C)ccc2c1B(O)OC2 [AN15368] |  |  | 3-5 fold | conferred resistance

From US20240133884A1, “COMPOSITIONS AND METHODS FOR DETECTING TRYPANOSOMA CRUZI INFECTION” (University of Georgia Research Foundation, Inc., priority 2022, published 2024)
